Results taken from patent US7622469B2, “2,4-diamino-1,3,5-triazine derivatives” (Hamari Chemicals, Ltd., priority 2002, dated 2009).

Tests used:
MRSA 97-115 [1] = assay: Antibacterial activity test (MIC); type: cell-based, methicillin-resistant Staphylococcus aureus; details: Mueller-Hinton Broth, 37° C., 20 to 24 hours
Summary of the method: (§1)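 Broth dilution MIC per the Japanese Society of Chemotherapy standard method in Mueller-Hinton Broth. Strains were grown statically at 37° C for 16 to 20 hours and diluted in sterile saline to 10^5/ml. Compounds were dissolved in methanol and serially diluted twofold in medium, giving 100 μg/ml and 2^n-fold (n=−10 to 1).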

MRSA KM 97-108 [2] = assay: Antibacterial activity test (MIC); type: cell-based, methicillin-resistant Staphylococcus aureus; details: Mueller-Hinton Broth, 37° C., 20 to 24 hours
Summary of the method: as §1

MRSA KM 97-53 [3] = assay: Antibacterial activity test (MIC); type: cell-based, methicillin-resistant Staphylococcus aureus; details: Mueller-Hinton Broth, 37° C., 20 to 24 hours
Summary of the method: as §1

E. coli NIHJ JC-2 [4] = assay: Antibacterial activity test (MIC); type: cell-based; details: Mueller-Hinton Broth, 37° C., 20 to 24 hours
Summary of the method: as §1

P. aeruginosa KM 97-5 [5] = assay: Antibacterial activity test (MIC); type: cell-based; details: Mueller-Hinton Broth, 37° C., 20 to 24 hours
Summary of the method: as §1

P. aeruginosa No. 12 [6] = assay: Antibacterial activity test (MIC); type: cell-based; details: Mueller-Hinton Broth, 37° C., 20 to 24 hours
Summary of the method: as §1

P. aeruginosa PAO-1 [7] = assay: Antibacterial activity test (MIC); type: cell-based; details: Mueller-Hinton Broth, 37° C., 20 to 24 hours
Summary of the method: as §1

S. aureus 209PJC [8] = assay: Antibacterial activity test (MIC); type: cell-based; details: Mueller-Hinton Broth, 37° C., 20 to 24 hours
Summary of the method: as §1

VRE 49 [9] = assay: Antibacterial activity test (MIC); type: cell-based, vancomycin-resistant enterococci; details: Mueller-Hinton Broth, 37° C., 20 to 24 hours
Method: Regarding compounds obtained in respective Working Examples, in order to investigate antibacterial activity, minimal inhibitory concentration (MIC) was determined according to a standard method of Japanese Society of Chemotherapy.
As a test bacterium, nine kinds of S. aureus 209PJC, MRSA 97-115, MRSA KM 97-53, MRSA KM97-108, VRE 49, E. coli NIHJ JC-2, P. aeruginosa PAO-1, P. aeruginosa No. 12, P. aeruginosa KM97-5 were used and, as a medium, Mueller-Hinton Broth (DIFCO) was used. One platinum loop of a test bacterium was inoculated into 20 ml of a medium, and static culture was carried out at 37° C. for 16 to 20 hours, and then each bacterium species was diluted with a sterilized physiological saline to 10^5/ml, which was used as a test bacterium solution.
Then, each compound was dissolved in methanol, subjected to ½ stepwise dilution with a medium to prepare a medium for measuring sensitivity, and each 2 ml was dispensed into a test tube. A compound concentration in a medium was adjusted to 100 μg/ml and its 2^n-fold (n=−10 to 1).
Numerical values in Tables represent MIC expressed in μg/ml unit.

E. coli NIHJ JC-2 [10] = assay: Bactericidal activity test (MBC, phenol coefficient measuring method); type: cell-based
Summary of the method: (§2)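 Using a phenol-coefficient format, the cell suspension (1×10^7/ml) is added to twofold compound dilutions, sampled after 1, 3 and 5 minutes and regrown in heart infusion bouillon at 37° C. The MBC, in μg/ml, is the minimum concentration without growth in two or more of three tests.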

P. aeruginosa KM 97-5 [11] = assay: as above; type: cell-based
Summary of the method: as §2

P. aeruginosa No. 12 [12] = assay: as above; type: cell-based
Summary of the method: as §2

P. aeruginosa PAO-1 [13] = assay: as above; type: cell-based
Summary of the method: as §2

S. aureus 209PJC [14] = assay: as above; type: cell-based
Summary of the method: as §2

MRSA 97-115 [15] = assay: as above; type: cell-based, methicillin-resistant Staphylococcus aureus
Summary of the method: as §2

MRSA KM 97-108 [16] = assay: as above; type: cell-based, methicillin-resistant Staphylococcus aureus
Summary of the method: as §2

MRSA KM 97-53 [17] = assay: as above; type: cell-based, methicillin-resistant Staphylococcus aureus
Summary of the method: as §2

VRE 49 [18] = assay: as above; type: cell-based, vancomycin-resistant enterococci
Method: As a test bacterium, the same bacteria species as those of the antibacterial activity test were used; as a medium to be used, a SCD medium (manufactured by Eiken Chemical Co., Ltd.) was used for pre-culture medium; and a heart infusion bouillon medium (manufactured by Eiken Chemical Co., Ltd.) was used as a medium for growing a live bacterium in a test solution after bactericidal treatment. One platinum loop of a test bacterium was inoculated into 20 ml of a medium, and static culture was carried out at 37° C. for 18 to 20 hours, and the cells were adjusted with a sterilized physiological saline to 1×10^7/ml, which was used as a test bacterium solution.
Then, a solution of each compound in methanol was subjected to ½ stepwise dilution with sterilized water, each 5 ml was dispensed into a test tube, 0.5 ml of the previously prepared test bacterium solution was added thereto, and the mixture was blended well. After 1 minute, 3 minutes and 5 minutes has passed, 5 μl of the test solution was collected and inoculated into 2 ml of a heart infusion bouillon medium, this was cultured at 37° C. for 40 to 48 hours, and the presence or absence of growth of a bacterium was determined. A test was performed three times, a minimum concentration at which growth of a bacterium was not recognized two or more times was adopted as a minimal bactericidal concentration (MBC value).
Numerical values in Tables represent MBC expressed in μg/ml unit.

- minimal inhibitory concentration (MIC) (MRSA 97-115 [1]): 1.6 µg/mL
- minimal inhibitory concentration (MIC) (MRSA KM 97-108 [2]): 1.6 µg/mL
- minimal inhibitory concentration (MIC) (MRSA KM 97-53 [3]): 0.8 µg/mL
- minimal inhibitory concentration (MIC) (E. coli NIHJ JC-2 [4]): 12.5 µg/mL
- minimal inhibitory concentration (MIC) (P. aeruginosa KM 97-5 [5]): 25 µg/mL
- minimal inhibitory concentration (MIC) (P. aeruginosa No. 12 [6]): 25 µg/mL
- minimal inhibitory concentration (MIC) (P. aeruginosa PAO-1 [7]): 12.5 µg/mL
- minimal inhibitory concentration (MIC) (S. aureus 209PJC [8]): 0.8 µg/mL
- minimal inhibitory concentration (MIC) (VRE 49 [9]): 0.8 µg/mL
SMILES: CC(=O)O.CCCCCCCCCNC1=NC(C)(C)N=C(NCc2ccccc2)N1 [compound 48]
- minimal bactericidal concentration (MBC) (E. coli NIHJ JC-2 [10]; 1 min): 6.3 µg/mL
- minimal bactericidal concentration (MBC) (E. coli NIHJ JC-2 [10]; 3 min): 6.3 µg/mL
- minimal bactericidal concentration (MBC) (E. coli NIHJ JC-2 [10]; 5 min): 3.1 µg/mL
- minimal bactericidal concentration (MBC) (P. aeruginosa KM 97-5 [11]; 1 min): 3.1 µg/mL
- minimal bactericidal concentration (MBC) (P. aeruginosa KM 97-5 [11]; 3 min): 3.1 µg/mL
- minimal bactericidal concentration (MBC) (P. aeruginosa KM 97-5 [11]; 5 min): 3.1 µg/mL
- minimal bactericidal concentration (MBC) (P. aeruginosa No. 12 [12]; 1 min): 25 µg/mL
- minimal bactericidal concentration (MBC) (P. aeruginosa No. 12 [12]; 3 min): 12.5 µg/mL
- minimal bactericidal concentration (MBC) (P. aeruginosa No. 12 [12]; 5 min): 12.5 µg/mL
- minimal bactericidal concentration (MBC) (P. aeruginosa PAO-1 [13]; 1 min): 6.3 µg/mL
- minimal bactericidal concentration (MBC) (P. aeruginosa PAO-1 [13]; 3 min): 3.1 µg/mL
- minimal bactericidal concentration (MBC) (P. aeruginosa PAO-1 [13]; 5 min): 3.1 µg/mL
- minimal bactericidal concentration (MBC) (S. aureus 209PJC [14]; 1 min): 12.5 µg/mL
- minimal bactericidal concentration (MBC) (S. aureus 209PJC [14]; 3 min): 6.3 µg/mL
- minimal bactericidal concentration (MBC) (S. aureus 209PJC [14]; 5 min): 6.3 µg/mL
- minimal bactericidal concentration (MBC) (MRSA 97-115 [15]; 1 min): 12.5 µg/mL
- minimal bactericidal concentration (MBC) (MRSA 97-115 [15]; 3 min): 6.3 µg/mL
- minimal bactericidal concentration (MBC) (MRSA 97-115 [15]; 5 min): 6.3 µg/mL
- minimal bactericidal concentration (MBC) (MRSA KM 97-108 [16]; 1 min): 50 µg/mL
- minimal bactericidal concentration (MBC) (MRSA KM 97-108 [16]; 3 min): 50 µg/mL
- minimal bactericidal concentration (MBC) (MRSA KM 97-108 [16]; 5 min): 25 µg/mL
- minimal bactericidal concentration (MBC) (MRSA KM 97-53 [17]; 1 min): 50 µg/mL
- minimal bactericidal concentration (MBC) (MRSA KM 97-53 [17]; 3 min): 25 µg/mL
- minimal bactericidal concentration (MBC) (MRSA KM 97-53 [17]; 5 min): 25 µg/mL
- minimal bactericidal concentration (MBC) (VRE 49 [18]; 1 min): 25 µg/mL
- minimal bactericidal concentration (MBC) (VRE 49 [18]; 3 min): 12.5 µg/mL
- minimal bactericidal concentration (MBC) (VRE 49 [18]; 5 min): 12.5 µg/mL
